In patent US12194093B2, “Dosing parameters for CD47 targeting therapies to hematologic malignancies” (The Board of Trustees of the Leland Stanford Junior …, priority 2017, dated 2025):
“Also recorded” adds a separate entry of the source.

What was measured:
[1] = test system: HL60 leukemia cells; experiment: Macrophage phagocytosis of HL60 leukemia cells (flow cytometry); type: cell-based, human; settings: azacitidine 1 μM
Experimental: Macrophages were labeled with an anti-CD206 Ab and all cells were analyzed by flow cytometry to determine phagocytosis of HL60 leukemia cells. Phagocytosis of HL60 leukemia cells was determined as percentage of GFP positive, HL60 engulfing, macrophages compared to total number of macrophages. Results were normalized to the condition with maximal phagocytosis (100%).

[2] = test system: AML; experiment: Pre-clinical models, trough level and anti-leukemic activity; type: in vivo
Experimental: (§1) This trough level served as the minimum trough level target to guide dosing in the Phase 1 trial. […] Rapid peaks and troughs observed were consistent with target-mediated disposition due to non-linear saturation of the CD47 sink. […] Dose levels of 10 mg/kg or greater (Cohorts 3 and 4) achieve target trough levels by about 4 weeks, which is the time of first response assessment.
(§2) Prospective testing of AML patients' molecular, chromosomal, and phenotypic characteristics by DNA sequencing, cytogenetic analysis/fluorescence in situ hybridization (FISH), and flow cytometry, can lead to identification of patients with greater responses to Hu5F9-G4.

[3] = AML Phase 1 trial, serum concentrations of Hu5F9-G4; type: in vivo, human; settings: patients
Experimental: as §1

[4] = test system: bone marrow macrophages and T cells; experiment: Immunohistochemistry of macrophages and T cells in patient bone marrow; type: in vivo, human; settings: patient with partial response
Experimental: In one patient that obtained a partial response, macrophage and T cell infiltrates in the bone marrow was assessed.

[5] = test system: AML; experiment: AML Phase 1 trial, clinical response; type: in vivo, human
Experimental: as §1
Several additional factors are notable for these patients with biologic activity.

[6] = test system: human AML; experiment: Human AML xenograft mouse model, early death and disease clearance; type: in vivo
Source text: We have established a human AML xenograft mouse model to test CD47-SIRPalpha pathway blocking therapies.
We also observed that early death seemed to be related to burden of circulating disease, in that mice with high levels of circulating leukemia cells succumbed to early death.
The object of this study was to determine whether early death observed in AML-xenografted mice can be avoided by reducing the rate at which leukemia cells are killed. […] It was hypothesized that early death might be due either to agglutination of leukemic cells or tumor lysis, and that early death may be avoided by reducing the rate at which leukemia cells are killed.
All mice in the control group continuously progressed and died.

[7] = test system: circulating WBC; experiment: AML Phase 1 trial, cytoreduction with concomitant Hu5F9-G4, safety; type: in vivo, human; settings: any patients treated on Phase 1 trial
[8] = test system: myeloid mutations; experiment: Targeted DNA sequencing of myeloid mutations in Phase 1 AML patients; type: in vivo, human; settings: Phase 1 AML patients receiving Hu5F9-G4
Source text: as §2

## Nc1ncn([C@@H]2O[C@H](CO)[C@@H](O)[C@H]2O)c(=O)n1 [Azacitidine]
[1]
  phagocytic elimination of HL60 leukemia cells by human macrophages: did not enhance

## Hu5F9-G4: a humanized anti-CD47 antibody
[2]; monotherapy, cytogenetic, molecular, phenotypic/morphologic subtypes
  pre-clinical activity across AML subtypes: monotherapy activity across a wide range of cytogenetic, molecular, and phenotypic AML subtypes; also recorded: broad pre-clinical activity across AML morphologic, molecular, and cytogenetic subtypes
[2]; pre-clinical and initial clinical studies
  activity in relation to tumor burden: enhanced activity in lower tumor burden of disease
[2]; pre-clinical models
  trough level associated with efficacy: ≥ 100 µg/mL
[3]; dose levels 3 mg/kg or less (Cohorts 1 and 2)
  achievement of target trough levels (100 μg/ml): did not achieve target trough levels
[3]; dose levels of 10 mg/kg or greater (Cohorts 3 and 4)
  time to achieve target trough levels (100 μg/ml): about 4 weeks
[4]; week 4 of treatment
  macrophages present in the marrow (CD68 or CD163 staining): significant number of macrophages
[4]; week 8 of therapy, baseline 10-15% or 15%
  T cell infiltrates, of all bone marrow cells: 40-50%
[5]; Cohort 3, one patient with partial response
  blast reduction: > 50%
[5]; Cohort 3, patient with partial response, month 3 and beyond of treatment
  RBC transfusion requirements: from approximately every week prior to treatment to once a month
[5]; Cohort 3, patient with partial response, ongoing
  duration of response: over 6 months
[5]; maximum of 10 mg/kg twice weekly (Cohort 3)
  patients exhibiting biologic antileukemic activity: two out of three
[5]; patients, at or below 3 mg/kg (Cohorts 1 and 2)
  response to therapy: not expected nor observed
[6]; AML xenografted mice with high circulating burden
  effect of intra-subject dose escalation (low doses first, then higher doses): prevented early mortality but also resulted in safe clearance of leukemic cells
[6]; Cohort I, 100 μg/day for 14 days, sole surviving mouse
  clearance of disease: disease was cleared
[6]; Cohort III, 7 doses of 1 μg, 7 doses of 10 μg, 14 doses of 100 μg
  clearance of disease: noticeably diminished
[6]; Cohort III, after end of treatment
  relapse: relapsed several weeks after the end of treatment
[6]; groups that received dose-escalating regimen
  effect of retreatment after relapse: cleared the disease and led to long-term disease free survival in some cases
[6]; initial dose 1 μg (Cohort III)
  early death: no early deaths and None
[6]; initial dose 10 μg (Cohort II)
  early death: 1 of 5 and One mouse out of five
[6]; initial dose 100 μg (Cohort I)
  early death: Four out of five
[6]; mouse, in vivo
  survival of subsequent doses: remaining four mice survived
[6]; xenografted mice with very high circulating AML burden (>50% of total WBC) and marrow infiltration
  time to death after administration of the first dose: ≤ 1 h
[7]
  acute death related to Hu5F9-G4: No acute death
[8]
  mutational burden (variant allele frequency): Reduction in mutational burden (variant allele frequency) was observed for some mutations over others
